Measurements from US20020193425A1, “Cancer chemopreventative compounds and compositions and methods of treating cancers” (priority 2001, published 2002).
In brackets after ≈: the same amount, converted by molar mass.

How the values were obtained:
[1] = test system: K562; assay: Antiproliferative activity, [3H]thymidine incorporation; format: cell-based; settings: Homo sapiens, 96 h, four days, read-out: Antiproliferative Activity (IC50, ng/ml)
Description: Cellular viability was monitored by Trypan blue exclusion.
^bproliferation was assayed by [^3H]thymidine incorporation with quadruplicate samples, as described under “Materials and methods”.

[2] = test system: c-myc mRNA, BV173; assay: c-myc mRNA levels, real time RT-PCR; format: cell-based
Description: (§1) RNA was extracted from 10^6 cells using TRIZOL® Reagent (Life Technologies). Following isopropanol precipitation, the pellet was washed in 75% aqueous ethanol and the RNA was dissolved in […] of diethyl pyrocarbonate (DEPC)-treated distilled water. Subsequently, the samples were stored at −80° C. RNA quantitation was performed by UV measurement at 260 nm. The cDNA synthesis was performed in a total volume of […], containing 1×TaqManÒ RT buffer, 5.5 mM MgCl2, 2 mM dNTPs mixture, 2.5 mM random hexamers, 4 U RNase inhibitor, 12.5 U MultiScriber RT (Perkin Elmer/Applied Biosystems) and […] of RNA. The reaction was performed for 10 min at 25° C., followed by 48° C. for 30 min and a 5 min incubation step at 95° C. After the reaction, […] of DEPC-treated distilled water was added to each sample and […] was used for each PCR.
(§2) The PCR and subsequent analyses were performed in the GeneAmp 5700 Sequence Detection System (Applied Biosystems). Real-time quantitation was performed using the TaqMan technology of Applied Biosystems (Foster City, Calif., USA). c-Myc primers and probe sequences (5′ to 3′) were as follows: […], […] and […] (Applied Biosystems).
(§3) PCR reactions were performed in triplicate. The PCR reaction mixture contained 300 nM of both primers, 150 nM TaqMan probe, and 1×TaqMan Universal Master Mix (Applied Biosystems). The reactions first were incubated at 50° C. for 2 min, followed by 10 min at 95° C. The PCR itself consisted of 40 cycles with 15 s at 95° C. and 1 min at 60° C. each. The fluorescence signal was measured during the last 30 s of the annealing/extension phase. After the PCR, a fluorescence threshold value was set and threshold cycle (Ct) values were determined, i.e., the fractional cycle at which the fluorescence signal reached this threshold. These values were used for further calculations.
(§4) β-Actin (TaqMan PDAR control, Applied Biosystems) was used as an endogenous reference to correct for any differences in the amount of total RNA used for a reaction and to compensate for different levels of inhibition during reverse transcription of RNA into cDNA. c-Myc and β-actin expression were related to a standard curve derived from a serial dilution of K562 cDNA with dH2O. Also, c-Myc and β-actin quantities were expressed in terms of ng of K562 RNA yielding the same level of expression. Subsequently, normalization was achieved by dividing the expression level of c-Myc by the β-actin expression level. Finally, results were expressed as a percentage, where the level of c-Myc observed in the DMSO-treated samples was considered as 100%.
(§5) Cells were treated with brusatol (25 ng/ml) or bruceantin (10 ng/ml) for 4 or 24 h and then analyzed for c-myc and β-actin mRNA using real time RT-PCR. Results are shown as percentage of c-myc mRNA expression of control (0.1%, v/v, DMSO) values. Results are the mean of triplicate samples (±standard deviation). c-Myc mRNA values were normalized relative to β-actin.

[3] = test system: c-myc mRNA, Daudi; assay: c-myc mRNA levels, real time RT-PCR; format: cell-based
Description: as §1, §2, §3, §4, §5

[4] = test system: c-myc mRNA, K562; assay: c-myc mRNA levels, real time RT-PCR; format: cell-based
Description: as §1, §2, §3, §4, §5

[5] = test system: c-myc mRNA, Kasumi-1; assay: c-myc mRNA levels, real time RT-PCR; format: cell-based
Description: as §1, §2, §3, §4, §5

[6] = test system: c-myc mRNA, NB4; assay: c-myc mRNA levels, real time RT-PCR; format: cell-based
Description: as §1, §2, §3, §4, §5

[7] = test system: c-myc mRNA, RS4;11; assay: c-myc mRNA levels, real time RT-PCR; format: cell-based
Description: as §1, §2, §3, §4, §5

[8] = test system: c-myc mRNA, Reh; assay: c-myc mRNA levels, real time RT-PCR; format: cell-based
Description: as §1, §2, §3, §4, §5

[9] = test system: c-myc mRNA, SUPB13; assay: c-myc mRNA levels, real time RT-PCR; format: cell-based
Description: as §1, §2, §3, §4, §5

[10] = test system: c-myc mRNA, U937; assay: c-myc mRNA levels, real time RT-PCR; format: cell-based
Description: as §1, §2, §3, §4, §5

[11] = test system: HL-60 (human promyelocytic) cells; assay: HL-60 cell proliferation assay of quassinoids, [3H]thymidine incorporation; format: cell-based; settings: for IC50: Homo sapiens, 4-day incubation, [3H]thymidine incorporation, read-out: inhibition of proliferation (IC50); for selectivity index: ratio of cytotoxic IC50 over antiproliferative IC50
Description: Induction of differentiation was determined by the ability of treated cells to produce superoxide anions (nitroblue tetrazolium (NBT)-reduction), a functional marker of mature macrophages or granulocytes. Proliferation capacity is equivalent to cell growth and was measured by incorporation of [3H]thymidine into DNA over a period of 18 h, and cytotoxic activity was evaluated by the loss of membrane integrity as shown by trypan blue exclusion. […] Although members of the brusatol and glaucarubolone series were active, when comparing members of both series that varied only in the positioning of the epoxymethano bridge, great differences were noted, as shown with yadianzolide C (5) and glaucarubolone (24), and analogues 4 (brusatol series) and 32 (glaucarubolone series).
HL-60 (human promyelocytic) cells were tested using a 4-day incubation protocol. In brief, cells in log phase (approximately 10^6 cells/mL) were diluted to […] and preincubated overnight (18 h) in 24-well plates to allow cell-growth recovery. Then, samples dissolved in DMSO were added, keeping the final DMSO concentration at 0.1% (v/v). Control cultures were treated with the same concentration of DMSO. After 4 days of incubation, the cells were analyzed to determine the percentage of cells undergoing maturation as determined by NBT reduction. Concomitantly, the effect on viability and proliferation of HL-60 cells was determined. In each experiment, 1α, 25-dihydroxyvitamin D3 (EC50=0.01 μM) and brusatol (EC50=0.07 μM) were used as reference controls. EC50 and IC50 values were calculated using 5-7 test concentrations (in duplicate), and consistent results were obtained, indicating the data reported for the related quassinoids are reliable.
(3) Cell Proliferation Assay. […] Cells were then collected on glass fiber filters (90×120 mm; Wallac, Turku, Finland) using a TOMTEC Harvester 96®.

[12] = Cytotoxicity, viability by Trypan blue exclusion; settings: human, K562 cells
Description: HL-60, K562, U937, Reh and Daudi cells were obtained from the American Type Culture Collection (Rockville, Md.). Kasumi-1, NB4, BV173, SUPB13, and RS4;11 cells were provided by the Section of Hematology/Oncology, University of Illinois College of Medicine, Chicago, Ill. All cell lines were maintained in suspension culture using RPMI 1640 medium supplemented with 10% heat-inactivated fetal bovine serum, 100 units of penicillin/ml and 100 μg of streptomycin/ml at 37° C. in a humidified atmosphere of 5% CO2 in air. All cells were routinely tested for mycoplasma contamination.
Cellular viability was monitored by Trypan blue exclusion. Inhibition of [3H]thymidine incorporation into DNA was determined to assess the level of cell proliferation as well as DNA synthesis inhibition. Cells were treated with test samples for four days and then placed into 96-well plates (100 μl) and treated with [3H]thymidine (0.5 μCi/ml, 65 Ci/mmol) for 18 h at 37° C. in a 5% CO2 incubator. Cells then were collected on glass fiber filters using a TOMTEC Harvester 96®. The filters were counted using a Microbeta™ liquid scintillation counter (Wallac, Turku, Finland) with scintillation fluid. Finally, the percentage of [3H]thymidine incorporation per 10^6 cells was calculated by dividing the dpm of sample-treated cells by the dpm of DMSO-treated cells.
^aViability was determined by Trypan blue exclusion in duplicate samples. […] Results are expressed as median inhibitory cell concentrations of two independent experiments (±standard deviations).

Q: What does the source list for COC(=O)[C@@]12OC[C@]34[C@H]([C@@H](O)[C@@H]1O)[C@@]1(C)CC(=O)C(O)=C(C)[C@@H]1C[C@H]3OC(=O)[C@H](OC(=O)C=C(C)C)[C@@H]24 [compound 1, brusatol]?
A: IC50 [1]: 10 ± 0.2 ng/mL (≈ 0.0192 µM); c-myc mRNA expression, percentage of control ([2]; Brusatol (25 ng/ml), 4 h): 78 ± 12 %; c-myc mRNA expression, percentage of control ([2]; Brusatol (25 ng/ml), 24 h): 45 ± 0 %; c-myc mRNA expression, percentage of control ([3]; Brusatol (25 ng/ml), 4 h): 100 ± 7%; c-myc mRNA expression, percentage of control ([3]; Brusatol (25 ng/ml), 24 h): 84 ± 1 %; decrease in c-Myc mRNA levels ([4]; 4 h treatment): about 40%; c-myc mRNA expression, percentage of control ([4]; Brusatol (25 ng/ml), 4 h): 62 ± 4 %; c-myc mRNA expression, percentage of control ([4]; Brusatol (25 ng/ml), 24 h): 45 ± 6 %; c-myc mRNA expression, percentage of control ([5]; Brusatol (25 ng/ml), 4 h): 27 ± 5 %; c-myc mRNA expression, percentage of control ([5]; Brusatol (25 ng/ml), 24 h): 31 ± 3 %; c-myc mRNA expression, percentage of control ([6]; Brusatol (25 ng/ml), 4 h): 34 ± 4 %; c-myc mRNA expression, percentage of control ([6]; Brusatol (25 ng/ml), 24 h): 24 ± 3 %; c-myc mRNA expression, percentage of control ([7]; RS4,11, Brusatol (25 ng/ml), 24 h): 37 ± 2 %; c-myc mRNA expression, percentage of control ([7]; RS4;11, Brusatol (25 ng/ml), 4 h): 54 ± 5 %; c-myc mRNA expression, percentage of control ([8]; Brusatol (25 ng/ml), 4 h): 87 ± 2%; c-myc mRNA expression, percentage of control ([8]; Brusatol (25 ng/ml), 24 h): 38 ± 3 %; c-myc mRNA expression, percentage of control ([9]; Brusatol (25 ng/ml), 4 h): 27 ± 3 %; c-myc mRNA expression, percentage of control ([9]; Brusatol (25 ng/ml), 24 h): 24 ± 1 %; c-myc mRNA expression, percentage of control ([10]; Brusatol (25 ng/ml), 4 h): 103 ± 1%; c-myc mRNA expression, percentage of control ([10]; Brusatol (25 ng/ml), 24 h): 19 ± 1 %; IC50 [11]: 70 ± 7 nM; selectivity index [11]: 2.5 ± 0.3; IC50 at 4 days [12]: > 0.1 µg/mL; viability at 4 days, 100 ng/ml [12]: ~90%

Q: What does the source list for COC(=O)[C@@]12OC[C@]34[C@H]([C@@H](O)[C@@H]1O)[C@@]1(C)CC(=O)C(O)=C(C)[C@@H]1C[C@H]3OC(=O)[C@H](OC(=O)/C=C(\C)C(C)C)[C@@H]24 [compound 2, bruceantin]?
A: IC50 [1]: 6 ± 0.1 ng/mL (≈ 0.0109 µM); c-myc mRNA expression, percentage of control ([2]; Bruceantin (10 ng/ml), 4 h): 125 ± 11 %; c-myc mRNA expression, percentage of control ([2]; Bruceantin (10 ng/ml), 24 h): 67 ± 9 %; c-myc mRNA expression, percentage of control ([3]; Bruceantin (10 ng/ml), 4 h): 134 ± 17%; c-myc mRNA expression, percentage of control ([3]; Bruceantin (10 ng/ml), 24 h): 70 ± 5 %; c-myc mRNA expression, percentage of control ([4]; Bruceantin (10 ng/ml), 4 h): 55 ± 2 %; c-myc mRNA expression, percentage of control ([4]; Bruceantin (10 ng/ml), 24 h): 33 ± 2 %; c-myc mRNA expression, percentage of control ([5]; Bruceantin (10 ng/ml), 4 h): 20 ± 2 %; c-myc mRNA expression, percentage of control ([5]; Bruceantin (10 ng/ml), 24 h): 15 ± 2 %; c-myc mRNA expression, percentage of control ([6]; Bruceantin (10 ng/ml), 4 h): 27 ± 4 %; c-myc mRNA expression, percentage of control ([6]; Bruceantin (10 ng/ml), 24 h): 85 ± 5%; c-myc mRNA expression, percentage of control ([7]; RS4;11, Bruceantin (10 ng/ml), 4 h): 68 ± 3%; c-myc mRNA expression, percentage of control ([7]; RS4;11, Bruceantin (10 ng/ml), 24 h): 31 ± 8 %; c-myc mRNA expression, percentage of control ([8]; Bruceantin (10 ng/ml), 4 h): 68 ± 5 %; c-myc mRNA expression, percentage of control ([8]; Bruceantin (10 ng/ml), 24 h): 42 ± 6 %; c-myc mRNA expression, percentage of control ([9]; Bruceantin (10 ng/ml), 4 h): 38 ± 2 %; c-myc mRNA expression, percentage of control ([9]; Bruceantin (10 ng/ml), 24 h): 24 ± 2 %; c-myc mRNA expression, percentage of control ([10]; Bruceantin (10 ng/ml), 4 h): 86 ± 1%; c-myc mRNA expression, percentage of control ([10]; Bruceantin (10 ng/ml), 24 h): 19 ± 2 %; IC50 [11]: 40 ± 3 nM; selectivity index [11]: 1.0 ± 0.2
